Molecular target: T1, Universal stress protein (USP, Rv1636) (Mycobacterium tuberculosis, UniProt P9WFC9)
T1 construct: His-tagged Rv1636
Assay: biochemical
Type: binding

T1 sequence (P9WFC9 whole entry): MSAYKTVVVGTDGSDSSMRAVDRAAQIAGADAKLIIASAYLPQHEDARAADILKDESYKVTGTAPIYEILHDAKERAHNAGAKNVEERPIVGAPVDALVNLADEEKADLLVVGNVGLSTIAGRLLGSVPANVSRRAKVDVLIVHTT

SMILES: COc1cc(/C=C/C(=O)CC(=O)/C=C/c2ccc(O)c(OC)c2)ccc1O [Curcumin]
- Kd: 17.4 ± 0.8 µM

SMILES: COc1cc2c(cc1OC)-c1cc(NCCCCN)nc(=O)n1CC2 [compound 19, 2-((4-aminobutyl)amino)-9,10-dimethoxy-6,7-dihydro-4H-pyrimido[6,1-a]isoquinolin-4-one]
- Kd: 998 ± 82 µM

SMILES: NC(=O)NCCC[C@@H](NC(=O)CCn1ccc2c(Cl)cccc21)C(=O)O [compound 20, (R)-2-(3-(4-chloro-1H-indol-1-yl)propanamido)-5-ureidopentanoic acid]
- Kd: 1720 ± 731 µM

Source: publication PMC8126637 (Frontiers in Molecular Biosciences, 2021)
